“And” between values parts separate entries of the source, which are not always exact repeats. Equal values may be shown once. Read-outs that look alike come from different tables or passages of the source. Marks after values point to notes of the source that are not given here.
Experiments:
[1] = Pharmacokinetics of regorafenib in plasma of freely moving rats with or without RT (HPLC-UV); assay type: in vivo, Sprague-Dawley rats; settings: for MRT / Tmax / half-life: plasma, po, 16 mg/kg; for half-life: read-out: t½
Protocol: The Institutional Animal Experimentation Committee of National Yang-Ming University, Taipei, Taiwan, and the Institutional Animal Care and Use Committee (IACUC, approval number 1070523) reviewed and approved the protocol. The Laboratory Animal Center at National Yang-Ming University (Taipei, Taiwan) provided adult male Sprague-Dawley rats (300 ± 20 g body weight). A pathogen-free environment with a 12 h light–dark cycle, with access to water ad libitum and food (laboratory rodent diet 5P14, PMI Feeds, Richmond, IN, USA), was provided for the animals.
A freely moving rat model was designed for the current study. The rats were anaesthetized and immobilized on a board, while undergoing computed tomography for localization of the whole liver or a central area 1.5 cm × 1.5 cm in size for the SBRT technique. For the whole liver field, the cranial margin was set 5 mm from the top of the diaphragm, and the caudal margin was set 5 mm lower than the liver margin. The whole liver was targeted for irradiation. The experimental animals were randomized to groups receiving sham RT, one or three fractions of RT2 Gy and RT9 Gy with current or sequential regorafenib. Data were collected from six rats in each group.
According to the formula used to translate doses from animal to human, human equivalent dose (HED, mg/kg) = animal dose (mg/kg) × animal km/human km, we calculated the daily dose of regorafenib for rats to be 16 (mg/kg/day). The rats were randomly divided into ten groups with six rats in each group. The concurrent groups treated with regorafenib 1 h after RT, in the same day, to mimic regorafenib concurrent with RT in the daily practice. The sequential groups treated with regorafenib following RT (not in the same day), to mimic RT followed by regorafenib in the daily practice. The one fraction study group included (A) a sham group, regorafenib with RT0 Gy (regorafenib × 1 d); concurrent groups treated with regorafenib 1 h after (B) RT2 Gy with 1 fraction (RT2 Gy × 1 f’x) and (D) RT9 Gy with 1 fraction (RT9 Gy × 1 f’x); and sequential groups treated with regorafenib 24 h after (C) RT2 Gy × 1 f’x and (E) RT9 Gy × 1 f’x. Continued treatment mimicking clinical practice was applied to (A) a sham group, regorafenib (p.o. (per os), q.d. × 3 d) with RT0 Gy (regorafenib × 3 d); concurrent groups treated with regorafenib (p.o., q.d. × 3 d) 1 h after (B) RT2 Gy with 3 fractions (RT2 Gy × 3 f’x) and (D) RT9 Gy with 3 fractions (RT9Gy × 3 f’x); and sequential groups treated with regorafenib 24 h (p.o., q.d. × 3 d) after (C) RT2 Gy × 3 f’x and (E) RT9 Gy × 3 f’x. (Figure 1A,B).
A 150 µL blood sample was withdrawn from the jugular vein with a fraction collector at 0.25, 0.5, 0.75, 1, 1.5, 2, 2.5, 3, 3.5 and 4 h, following drug administration. The samples were centrifuged for 10 min, at 4200× g. Then, 50 µL of the resulting plasma was vortexed with 1 mL of ethyl acetate and centrifuged at 5900× g. The upper layer was transferred to a new tube and evaporated to dryness.
The HPLC system included chromatographic pumps (LC-20AT; Shimadzu Co., Kyoto, Japan), an autosampler (SIL-20AC; Shimadzu Co., Kyoto, Japan) and a UV–Vis detector (SPDM20A; Shimadzu Co., Kyoto, Japan). A Waters Acquity C^18 column (50 × 2.1 mm, particle size 1.7 μm, Eclipse XDB, Agilent, Palo Alto, CA, USA) was used for sample analysis. The mobile phase consisted of potassium dihydrogen phosphate (10 mM, pH = 3) and acetonitrile (55:45, v/v). The flow rate was set to 0.2 mL/min, and the injection volume was 5 μL. The temperature in the autosampler was set to 40 °C. The UV–Vis detector scanned from 190 to 300 nm, and the chromatographic profiles were monitored at 265 nm for regorafenib and diethylstilbestrol (internal standard (IS)).
The process for sample extraction was as follows: 50 μL of rat plasma was mixed with internal standard (10 μL, IS, diethylstilbestrol) solution and methanol (140 μL) for protein precipitation. […]

[2] = test system: HA22T cells; assay: Colony formation assay; assay type: cell-based, human
Protocol: HA22T cells kindly provided from professor Hu (Taipei Veterans General Hospital, Taiwan) were treated with trypsin to detach, counted and plated (400 per plate) into dishes measuring 60 mm, […] and allowed to grow for 10 days. Cells were stained, and colonies containing ≥ 50 cells were counted.

[3] = male, Sprague-Dawley, rat, rat plasma, 16 mg/kg p.o. × 1 d, no RT
[4] = male, Sprague-Dawley, rat, rat plasma, 16 mg/kg p.o. × 3 d, no RT
[5] = male, Sprague-Dawley, rat, rat plasma, RT2 Gy × 1 f'x followed by regorafenib 16 mg/kg p.o. × 1 d (sequential)
[6] = male, Sprague-Dawley, rat, rat plasma, RT2 Gy × 1 f'x with regorafenib 16 mg/kg p.o. × 1 d (concurrent)
[7] = male, Sprague-Dawley, rat, rat plasma, RT2 Gy × 3 f'x followed by regorafenib 16 mg/kg p.o. × 3 d (sequential)
[8] = male, Sprague-Dawley, rat, rat plasma, RT2 Gy × 3 f'x with regorafenib 16 mg/kg p.o. × 3 d (concurrent)
[9] = male, Sprague-Dawley, rat, rat plasma, RT9 Gy × 1 f'x followed by regorafenib 16 mg/kg p.o. × 1 d (sequential)
[10] = male, Sprague-Dawley, rat, rat plasma, RT9 Gy × 1 f'x with regorafenib 16 mg/kg p.o. × 1 d (concurrent)
[11] = male, Sprague-Dawley, rat, rat plasma, RT9 Gy × 3 f'x followed by regorafenib 16 mg/kg p.o. × 3 d (sequential)
[12] = male, Sprague-Dawley, rat, rat plasma, RT9 Gy × 3 f'x with regorafenib 16 mg/kg p.o. × 3 d (concurrent)
[13] = rat plasma, 16 mg/kg p.o. × 1 d, no RT
[14] = rat plasma, 16 mg/kg p.o. × 3 d, no RT
[15] = rat plasma, RT2 Gy × 1 f'x followed by regorafenib 16 mg/kg p.o. × 1 d (sequential)
[16] = rat plasma, RT2 Gy × 1 f'x with regorafenib 16 mg/kg p.o. × 1 d (concurrent)
[17] = rat plasma, RT2 Gy × 3 f'x followed by regorafenib 16 mg/kg p.o. × 3 d (sequential)
[18] = rat plasma, RT2 Gy × 3 f'x with regorafenib 16 mg/kg p.o. × 3 d (concurrent)
[19] = rat plasma, RT9 Gy × 1 f'x followed by regorafenib 16 mg/kg p.o. × 1 d (sequential)
[20] = rat plasma, RT9 Gy × 1 f'x with regorafenib 16 mg/kg p.o. × 1 d (concurrent)
[21] = rat plasma, RT9 Gy × 3 f'x followed by regorafenib 16 mg/kg p.o. × 3 d (sequential)
[22] = rat plasma, RT9 Gy × 3 f'x with regorafenib 16 mg/kg p.o. × 3 d (concurrent)

Decrease of plasma AUCregorafenib ([1]; concurrent RT2 Gy × 1 f'x vs sham RT (regorafenib × 1 d), rat): 33.0% | Decrease of plasma AUCregorafenib ([1]; concurrent RT2 Gy × 3 f'x vs regorafenib × 3 d, rat): 74% | Decrease of plasma AUCregorafenib ([1]; concurrent RT9 Gy × 3 f'x vs regorafenib × 3 d, rat): 69% and 69.4% | concentration at 180 min ([1]; male, Sprague-Dawley, oral, rat plasma collected 180 min after regorafenib 16 mg/kg p.o. alone): 1500 ng/mL | MRT [1, 3]: 24.7 h | Tmax [1, 3]: 3.17 h | half-life [1, 3]: 15.7 ± 8.92 h | MRT [1, 4]: 13.7 h | Tmax [1, 4]: 1.5 h | half-life [1, 4]: 9.17 ± 2.43 h | MRT [1, 5]: 9.22 h | Tmax [1, 5]: 3 h | half-life [1, 5]: 5.77 ± 1.55 h | MRT [1, 6]: 10.8 h | Tmax [1, 6]: 2.75 h | half-life [1, 6]: 6.82 ± 2.5 h | MRT [1, 7]: 22.8 h | Tmax [1, 7]: 1.67 h | half-life [1, 7]: 15.3 ± 15.9 h | MRT [1, 8]: 9.73 h | Tmax [1, 8]: 2.08 h | half-life [1, 8]: 6.2 ± 2.53 h | MRT [1, 9]: 15.6 h | Tmax [1, 9]: 2.58 h | half-life [1, 9]: 10.1 ± 3.5 h | MRT [1, 10]: 16.3 h | Tmax [1, 10]: 2.58 h | half-life [1, 10]: 10.9 ± 7.42 h | MRT [1, 11]: 14.3 h | Tmax [1, 11]: 1.83 h | half-life [1, 11]: 9.52 ± 5.38 h | MRT [1, 12]: 16.4 h | Tmax [1, 12]: 1.63 h | half-life [1, 12]: 11 ± 9.97 h | Decrease of regorafenib levels (AUC) by a single fraction of RT, concurrent regimen ([1]; off-target or SBRT dose, × 1 f'x, concurrent, rat): ~35% | AUCregorafenib, sequential RT2 Gy × 3 f'x relative to concurrent RT2 Gy × 3 f'x ([1]; rat plasma): 2.0 fold | Cl [1, 13]: 8.18 ± 3.06 mL/min/kg | Vss [1, 13]: 12641.9 ± 6928.9 mL/kg | Cl [1, 14]: 4.21 ± 1.82 mL/min/kg | Vss [1, 14]: 3604.5 ± 951.1 mL/kg | Cl [1, 15]: 6.19 ± 0.35 mL/min/kg | Vss [1, 15]: 3081.4 ± 773.1 mL/kg | Cl [1, 16]: 16.6 ± 7.21 mL/min/kg | Vss [1, 16]: 21606.9 ± 20731.8 mL/kg | Cl [1, 17]: 8.56 ± 7.21 mL/min/kg | Vss [1, 17]: 4156.0 ± 1959.9 mL/kg | Cl [1, 18]: 23.20 ± 9.45 ^n mL/min/kg | Vss [1, 18]: 12759.6 ± 8467.4 ^p mL/kg | Cl [1, 19]: 3.3 ± 4.3 mL/min/kg | Vss [1, 19]: 2898.8 ± 4123.7 mL/kg | Cl [1, 20]: 34.6 ± 25.3 mL/min/kg | Vss [1, 20]: 30999.0 ± 34618.0 mL/kg | Cl [1, 21]: 11.4 ± 4.5 mL/min/kg | Vss [1, 21]: 7960.3 ± 3023.5 ^r mL/kg | Cl [1, 22]: 19.0 ± 11.7 ^o mL/min/kg | Vss [1, 22]: 11564.4 ± 3361.0 ^q mL/kg | Increase of plasma AUCregorafenib ([1]; sequential RT2 Gy × 1 f'x vs regorafenib × 1 d, rat): 182.8% | Decrease of plasma AUCregorafenib ([1]; sequential RT2 Gy × 3 f'x vs regorafenib × 3 d, rat): 20.7% | Increase of plasma AUCregorafenib ([1]; sequential RT9 Gy × 1 f'x vs regorafenib × 1 d, rat): 213.2% | Decrease of plasma AUCregorafenib ([1]; sequential RT9 Gy × 3 f'x vs regorafenib × 3 d, rat): 45.8%
SMILES: CNC(=O)c1cc(Oc2ccc(NC(=O)Nc3ccc(Cl)c(C(F)(F)F)c3)c(F)c2)ccn1 [regorafenib, Regorafenib]
Colony formation, regorafenib with RT vs regorafenib alone (in words) ([2]; regorafenib 1, 10 and 20 μM, concurrent or sequential with RT): synergic effects to inhibit the colony formation | Colony formation of HA22T (in words) ([2]; regorafenib 1 to 20 μM and RT (2 and 9 Gy)): colony formation of HA22T were decreased
